Laboratory results reported in the supplement of paper PMC12137928.
Counter-ions that a name gives are not always drawn.

Test system: HCT116
Details: 72 h
Method in brief: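 HCT116 cells were seeded at 250 per well in 1536-well plates with 5 h allowed for attachment. CellTiter-Glo luminescence was normalized against vehicle (0%) and positive control (-100%) before pattern correction. The IC50 and maximal efficacy figures derive from four-parameter Hill fits.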

With CC(=O)NCc1c(I)c(NC(C)=O)c(I)c(C(=O)O)c1I [Iodamide] the IC50 cell viability (ICRF193 0 nM) was > 45.8 µM and the IC50 cell viability (ICRF193 200 nM) was > 45.8 µM.
For O=C(CCCCC(=O)Nc1c(I)cc(I)c(C(=O)O)c1I)Nc1c(I)cc(I)c(C(=O)O)c1I [Iodipamide], the IC50 cell viability (ICRF193 0 nM) was > 45.8 µM and the IC50 cell viability (ICRF193 200 nM) was > 45.8 µM.
CC(=O)N(CC(O)CN(C(C)=O)c1c(I)c(C(=O)NCC(O)CO)c(I)c(C(=O)NCC(O)CO)c1I)c1c(I)c(C(=O)NCC(O)CO)c(I)c(C(=O)NCC(O)CO)c1I (centres undefined) [Iodixanol] was tested, and the IC50 cell viability (ICRF193 0 nM) was > 45.8 µM and the IC50 cell viability (ICRF193 200 nM) was > 45.8 µM.
With Cc1c(I)c(=O)n(-c2ccccc2)n1C [Iodoantipyrine] the IC50 cell viability (ICRF193 0 nM) was > 45.8 µM and the IC50 cell viability (ICRF193 200 nM) was > 45.8 µM.
In the case of O=C(CCOCCOCCOCCOCCC(=O)Nc1c(I)cc(I)c(C(=O)O)c1I)Nc1c(I)cc(I)c(C(=O)O)c1I [Iodoxamic Acid], the IC50 cell viability (ICRF193 0 nM) is reported as > 45.8 µM and the IC50 cell viability (ICRF193 200 nM) is reported as > 45.8 µM.
For CC(C)NC(C)Cc1ccc(I)cc1 (centres undefined) [Iofetamine hydrochloride], the IC50 cell viability (ICRF193 0 nM) was > 45.8 µM and the IC50 cell viability (ICRF193 200 nM) was > 45.8 µM.
For CC(=O)N(CC(O)CO)c1c(I)c(C(=O)NCC(O)CO)c(I)c(C(=O)NCC(O)CO)c1I (centres undefined) [Iohexol], the IC50 cell viability (ICRF193 0 nM) was > 45.8 µM and the IC50 cell viability (ICRF193 200 nM) was > 45.8 µM.
In the case of CCOC(=O)c1ncn2c1CN(C)C(=O)c1c(I)cccc1-2 [Iomazenil], the IC50 cell viability (ICRF193 0 nM) is reported as > 45.8 µM and the IC50 cell viability (ICRF193 200 nM) is reported as > 45.8 µM.
CN(C(=O)CO)c1c(I)c(C(=O)NCC(O)CO)c(I)c(C(=O)NCC(O)CO)c1I (centres undefined) [Iomeprol] was tested, and the IC50 cell viability (ICRF193 0 nM) was > 45.8 µM and the IC50 cell viability (ICRF193 200 nM) was > 45.8 µM.
For C[C@H](O)C(=O)Nc1c(I)c(C(=O)NC(CO)CO)c(I)c(C(=O)NC(CO)CO)c1I [Iopamidol], the IC50 cell viability (ICRF193 0 nM) was > 45.8 µM and the IC50 cell viability (ICRF193 200 nM) was > 45.8 µM.
CCC(Cc1c(I)cc(I)c(N)c1I)C(=O)O (centres undefined) [Iopanoic acid] was tested, and the IC50 cell viability (ICRF193 0 nM) was > 45.8 µM and the IC50 cell viability (ICRF193 200 nM) was > 45.8 µM.
COCC(=O)Nc1c(I)c(C(=O)NCC(O)CO)c(I)c(C(=O)N(C)CC(O)CO)c1I (centres undefined) [Iopromide] was tested, and the IC50 cell viability (ICRF193 0 nM) was > 45.8 µM and the IC50 cell viability (ICRF193 200 nM) was > 45.8 µM.
For CNC(=O)c1c(I)c(NC(C)=O)c(I)c(C(=O)O)c1I [Iothalamate sodium], the IC50 cell viability (ICRF193 0 nM) was > 45.8 µM and the IC50 cell viability (ICRF193 200 nM) was > 45.8 µM.
With O=C(NCC(O)CO)c1c(I)c(C(=O)NCC(O)CO)c(I)c(N(CCO)C(=O)CO)c1I (centres undefined) [Ioversol] the IC50 cell viability (ICRF193 0 nM) was > 45.8 µM and the IC50 cell viability (ICRF193 200 nM) was > 45.8 µM.
In the case of CNC(=O)c1c(I)c(C(=O)NCC(=O)Nc2c(I)c(C(=O)O)c(I)c(C(=O)NCCO)c2I)c(I)c(N(C)C(C)=O)c1I [Ioxaglic Acid], the IC50 cell viability (ICRF193 0 nM) is reported as > 45.8 µM and the IC50 cell viability (ICRF193 200 nM) is reported as > 45.8 µM.
CC(=O)N(CC(O)CO)c1c(I)c(C(=O)NCCO)c(I)c(C(=O)NCC(O)CO)c1I (centres undefined) [Ioxilan] was tested, and the IC50 cell viability (ICRF193 0 nM) was > 45.8 µM and the IC50 cell viability (ICRF193 200 nM) was > 45.8 µM.
With CC(C)C[C@H]1[C@@H](c2ccccc2)OC(=O)N1CCCN1CCCCCC1 [Ipenoxazone hydrochloride] the IC50 cell viability (ICRF193 0 nM) was > 45.8 µM and the IC50 cell viability (ICRF193 200 nM) was > 45.8 µM.
In the case of CN(C)/C=N/c1c(I)cc(I)c(CCC(=O)O)c1I [Ipodate sodium], the IC50 cell viability (ICRF193 0 nM) is reported as > 45.8 µM and the IC50 cell viability (ICRF193 200 nM) is reported as > 45.8 µM.
In the case of OC[C@H]1O[C@@H](c2ccc(F)c(Cc3cc4ccccc4s3)c2)[C@H](O)[C@@H](O)[C@@H]1O [Ipragliflozin], the IC50 cell viability (ICRF193 0 nM) is reported as > 45.8 µM and the IC50 cell viability (ICRF193 200 nM) is reported as > 45.8 µM.
With CC(C)[N+]1(C)[C@@H]2CC[C@H]1C[C@@H](OC(=O)C(CO)c1ccccc1)C2 (some centres undefined) [Ipratropium bromide] the IC50 cell viability (ICRF193 0 nM) was > 45.8 µM and the IC50 cell viability (ICRF193 200 nM) was > 45.8 µM.
In the case of CC(C)Oc1ccc2c(=O)c(-c3ccccc3)coc2c1 [Ipriflavone], the IC50 cell viability (ICRF193 0 nM) is reported as > 45.8 µM and the IC50 cell viability (ICRF193 200 nM) is reported as > 45.8 µM.
CCCCC1=NC2(CCCC2)C(=O)N1Cc1ccc(-c2ccccc2-c2nnn[nH]2)cc1 [Irbesartan] was tested, and the IC50 cell viability (ICRF193 0 nM) was > 45.8 µM and the IC50 cell viability (ICRF193 200 nM) was > 45.8 µM.
In the case of Nc1nc(N)nc(-c2cc(Cl)ccc2Cl)n1 [Irsogladine maleate], the IC50 cell viability (ICRF193 0 nM) is reported as > 45.8 µM and the IC50 cell viability (ICRF193 200 nM) is reported as > 45.8 µM.
NC(=O)NC1N=C([O][Al])NC1=O.O.O (centres undefined) [Isalon] was tested, and the IC50 cell viability (ICRF193 0 nM) was > 45.8 µM and the IC50 cell viability (ICRF193 200 nM) was > 45.8 µM.
With CN[C@@H]1[C@@H](O)[C@@H](O[C@@H]2[C@@H](O)[C@H](O[C@H]3O[C@H](CN)[C@@H](O)[C@H](O)[C@H]3O)[C@@H](N)C[C@H]2NC(=O)[C@@H](O)CN)OC[C@]1(C)O [Isepamicin] the IC50 cell viability (ICRF193 0 nM) was > 45.8 µM and the IC50 cell viability (ICRF193 200 nM) was > 45.8 µM.
CC(CC(C#N)(c1ccccc1)C(C)C)N(C)C (centres undefined) [Isoaminile] was tested, and the IC50 cell viability (ICRF193 0 nM) was > 45.8 µM and the IC50 cell viability (ICRF193 200 nM) was > 45.8 µM.
For CC(C)COC(=O)c1ccc(N)cc1 [Isocaine], the IC50 cell viability (ICRF193 0 nM) was > 45.8 µM and the IC50 cell viability (ICRF193 200 nM) was > 45.8 µM.
With Cc1cc(C(=O)NNCc2ccccc2)no1 [Isocarboxazid] the IC50 cell viability (ICRF193 0 nM) was > 45.8 µM and the IC50 cell viability (ICRF193 200 nM) was > 45.8 µM.
In the case of C/C=C\c1ccc(O)c(OC)c1 [Isoeugenol], the IC50 cell viability (ICRF193 0 nM) is reported as > 45.8 µM and the IC50 cell viability (ICRF193 200 nM) is reported as > 45.8 µM.
In the case of CC(=O)OCC(=O)[C@@]1(O)CC[C@H]2[C@@H]3CCC4=CC(=O)C=C[C@]4(C)[C@@]3(F)[C@@H](O)C[C@@]21C [Isoflupredone acetate], the IC50 cell viability (ICRF193 0 nM) is reported as > 45.8 µM and the IC50 cell viability (ICRF193 200 nM) is reported as > 45.8 µM.
With FC(F)OC(Cl)C(F)(F)F (centres undefined) [Isoflurane] the IC50 cell viability (ICRF193 0 nM) was > 45.8 µM and the IC50 cell viability (ICRF193 200 nM) was > 45.8 µM.
In the case of CC(=NNC(=O)c1ccncc1)C(=O)O [Isoniazid pyruvate], the IC50 cell viability (ICRF193 0 nM) is reported as > 45.8 µM and the IC50 cell viability (ICRF193 200 nM) is reported as > 45.8 µM.
